From patent publication US10426850B2, “Collagen mimetic peptides for targeting collagen strands for in vitro and in vivo imaging and therapeutic use” (The Johns Hopkins University, priority 2011, dated 2019)
Blank lines part the entries; values can stand above or below the molecule they belong to. Non-standard residues stand in square brackets, D forms with d. No end group written: not given here. *: point of attachment. IRDye800CW = CC1(C)C(/C=C/C2=C(Oc3ccc(S(=O)(=O)O)cc3)C(=C/C=C3/N(CCCCS(=O)(=O)O)c4ccc(S(=O)(=O)O)cc4C3(C)C)/CCC2)=[N+](CCCCCC(=O)*)c2ccc(S(=O)(=O)[O-])cc21; Hyp = O=C(O)[C@@H]1C[C@@H](O)CN1; CF = 5(6)-carboxyfluorescein; Ahx = NCCCCCC(=O)O

What was measured:
[1] = Circular dichroism spectra and thermal melting of CMPs; format: physicochemical; conditions: for Tm (CD melting curve, triple helix): after UV exposure (photo-decaged), heating rate 60° C./hr, Tm about 10° C. higher than equilibrium Tm
Description: Circular dichroism spectroscopy. CD spectra were collected on JASCO 715 spectrophotometer equipped with a JASCO PTC-348 WI temperature controller and quartz cells (0.1 mm path length). CMP solutions (320 μL, 150 μM in 1×PBS) were stored at 4° C. for at least 24 hours before measurement. For photo-decaging, samples were exposed to 365 nm UV light for at least 30 minutes before the 4° C. incubation. The thermal melting studies were performed by measuring the ellipticity at 225 nm with 60° C./hr heating rate. Raw CD signal was normalized to mean residue ellipticity based on the peptide's length and concentration (Biopolymers 95:94-104 (2011)). Melting temperatures (Tm) were determined by fitting the mean residue ellipticity to a two-state model (Org Lett 8:4735-4738 (2006)). To measure the refolding kinetics, CMP solution was thermally denatured at 75° C. for 10 minutes in a cuvette and rapidly quenched to 25° C. in an ice-water bath, after which the CD signal at 225 nm was observed over time at 25° C. The CD spectra of intact and MMP-1 cleaved type I collagen (FIG. 12) was measured in 90 μg/mL protein solutions in 20 mM acetic acid buffer at 22° C. The 37° C. thermal stability profile (FIG. 2E, inset) was generated by monitoring the ellipticity at 222 nm immediately after transferring the cuvette to a temperature controlled cuvette holder pre-set to 37° C. The Tm values reported in this study are approximately 10° C. higher than the equilibrium Tm due to high heating rate (60° C./hr) (Biopolymers 73:682-688 (2004)).
Synthesis of fluorescently labeled collagen mimetic peptides. Non-caged CMPs were synthesized using Fmoc-mediated solid-phase chemistry by manual or automated synthesis as described previously.2,4 The caged NB(GPO)9 (SEQ ID NO: 12) was prepared by introducing Fmoc(N-o-nitrobenzyl)Gly-OH (synthesized according to Tatsu et al. 2,5) in the middle of the standard solid-phase peptide synthesis. The Hyp residue following the NBGly was conjugated using 9 molar equiv of Fmoc-Hyp(tBu)-OH, 8.8 molar equiv of PyBroP, and 20 molar equiv of DIPEA for over 24 hr to overcome the low reactivity caused by the steric hindrance of the NB cage group. The remaining sequence including the GGG spacer was completed by HBTU chemistry, followed by on-resin labeling with 6 molar equivalent of CF or TAMRA activated by 6 molar equivalent of PyAOP for over 24 hr. The full length fluorescent CMPs were cleaved from resin by treating the resin with TFA/TIS/H2O (95:2.5:2.5) for 3 hr and the cleaved peptide was purified by reverse phase HPLC on a Vydac C18 column using a linear gradient mixture of water (0.1% TFA) and acetonitrile (0.1% TFA) (5-45% acetonitrile gradient in 40 min). The purified peptides were analyzed by MALDI-TOF MS (FIG. 27): m/z calculated 2975.1 [M+Na+] for CF(GPO)9 (SEQ ID NO: 10), found 2975.0 [M+Na+]; m/z calculated 2975.1 [M+Na+] for ^SG9P9O9 (SEQ ID NO: 5), found 2973.5 [M+Na+]; m/z calculated 3110.2 [M+Na+] for CF^NB(GPO)9 (SEQ ID NO: 4), found 3109.4 [M+Na+]; m/z calculated 2975.1 [M+Na+] for CF(GPO)9 (SEQ ID NO: 10) [CF^NB(GPO)9 (SEQ ID NO: 4) after UV decaging], found 2974.1 [M+Na+]; m/z calculated 3142.3 [M+H+] for TAMRA-NB(GPO)9 (SEQ ID NO: 12), found 3141.4 [M+H+]; m/z calculated 3007.2 [M+H+] for TAMRA-(GPO)9 (SEQ ID NO: 15), [TAMRA-NB(GPO)9 (SEQ ID NO: 12) after decaging], found 3006.3 [M+H+]. CD spectra and CD melting curves of the labeled CMPs were acquired in PBS solutions using a JASCO 715 CD spectrophotometer. The solutions were incubated for at least 24 hours at 4° C. prior to CD experiment to ensure folding (FIG. 28).

[2] = molecular target: T1, type I collagen films (fibrillar collagen) (Rattus norvegicus, UniProt P02454+P02466); test: Photo-triggered CMP binding assay on collagen films; conditions: 4° C., overnight incubation
T1 construct: Collagen solution (200 μL, 3.71 mg/mL, type I rat tail, BD Science); purchased BD Science; host or cells: rat tail
T1 sequence (P02454 152-1207 limits assumed): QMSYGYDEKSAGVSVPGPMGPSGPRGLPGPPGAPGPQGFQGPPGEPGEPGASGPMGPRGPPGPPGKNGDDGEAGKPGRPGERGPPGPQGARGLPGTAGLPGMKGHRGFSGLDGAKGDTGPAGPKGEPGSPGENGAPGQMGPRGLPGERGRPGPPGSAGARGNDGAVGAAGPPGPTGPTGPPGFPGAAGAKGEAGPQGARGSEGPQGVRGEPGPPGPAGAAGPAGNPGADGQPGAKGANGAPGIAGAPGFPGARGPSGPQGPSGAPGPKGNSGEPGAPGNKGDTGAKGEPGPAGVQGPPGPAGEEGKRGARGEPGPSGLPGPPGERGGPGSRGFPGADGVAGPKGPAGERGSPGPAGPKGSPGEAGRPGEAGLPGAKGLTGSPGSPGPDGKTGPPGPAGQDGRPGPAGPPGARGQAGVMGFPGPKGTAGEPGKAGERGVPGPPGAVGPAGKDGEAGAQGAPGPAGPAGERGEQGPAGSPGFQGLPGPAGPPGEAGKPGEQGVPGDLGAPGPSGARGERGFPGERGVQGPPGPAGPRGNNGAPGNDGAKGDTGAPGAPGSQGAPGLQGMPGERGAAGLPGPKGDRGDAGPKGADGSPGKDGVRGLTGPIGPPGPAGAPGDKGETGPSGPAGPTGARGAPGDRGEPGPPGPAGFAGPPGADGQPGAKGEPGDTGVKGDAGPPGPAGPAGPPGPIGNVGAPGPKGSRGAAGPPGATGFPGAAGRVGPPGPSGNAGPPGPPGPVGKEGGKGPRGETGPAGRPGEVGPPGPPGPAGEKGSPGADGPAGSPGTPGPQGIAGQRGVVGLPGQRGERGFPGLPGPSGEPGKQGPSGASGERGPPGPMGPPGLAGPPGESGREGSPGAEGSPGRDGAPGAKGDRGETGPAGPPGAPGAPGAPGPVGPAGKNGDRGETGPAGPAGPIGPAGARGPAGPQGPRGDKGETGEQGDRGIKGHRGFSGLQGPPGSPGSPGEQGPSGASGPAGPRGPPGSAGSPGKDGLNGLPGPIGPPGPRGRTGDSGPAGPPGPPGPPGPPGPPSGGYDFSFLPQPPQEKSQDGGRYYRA
T1 sequence (P02466 86-1125 limits assumed): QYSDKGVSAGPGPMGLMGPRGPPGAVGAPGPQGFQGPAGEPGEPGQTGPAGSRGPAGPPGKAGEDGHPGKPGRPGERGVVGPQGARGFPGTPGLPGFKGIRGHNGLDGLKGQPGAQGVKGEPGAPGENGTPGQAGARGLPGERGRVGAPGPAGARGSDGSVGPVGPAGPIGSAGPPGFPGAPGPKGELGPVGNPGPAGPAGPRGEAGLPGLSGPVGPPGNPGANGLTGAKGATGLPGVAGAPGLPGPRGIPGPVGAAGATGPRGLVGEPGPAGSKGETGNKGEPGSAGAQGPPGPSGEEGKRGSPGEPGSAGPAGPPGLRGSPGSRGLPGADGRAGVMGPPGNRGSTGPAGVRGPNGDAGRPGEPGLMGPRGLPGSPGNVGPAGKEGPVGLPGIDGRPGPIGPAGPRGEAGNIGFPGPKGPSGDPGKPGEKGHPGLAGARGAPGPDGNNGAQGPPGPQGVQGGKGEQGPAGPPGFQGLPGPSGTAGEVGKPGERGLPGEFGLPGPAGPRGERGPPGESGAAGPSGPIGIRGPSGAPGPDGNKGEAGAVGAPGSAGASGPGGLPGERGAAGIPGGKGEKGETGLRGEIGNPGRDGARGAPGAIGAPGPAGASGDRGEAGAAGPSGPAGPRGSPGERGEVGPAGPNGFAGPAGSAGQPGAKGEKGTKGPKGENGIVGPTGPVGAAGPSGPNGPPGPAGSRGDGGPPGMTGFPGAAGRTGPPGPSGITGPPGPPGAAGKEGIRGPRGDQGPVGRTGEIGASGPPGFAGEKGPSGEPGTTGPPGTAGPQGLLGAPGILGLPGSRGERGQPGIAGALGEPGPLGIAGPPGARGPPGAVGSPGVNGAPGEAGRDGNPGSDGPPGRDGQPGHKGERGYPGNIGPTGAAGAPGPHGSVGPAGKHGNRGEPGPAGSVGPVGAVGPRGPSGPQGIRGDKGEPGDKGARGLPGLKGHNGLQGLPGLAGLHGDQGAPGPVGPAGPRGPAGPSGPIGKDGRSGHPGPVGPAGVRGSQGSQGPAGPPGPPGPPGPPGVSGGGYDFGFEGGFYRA
Description: (§1) Collagen/gelatin binding assays. Collagen solution (200 μL, 3.71 mg/mL, type I rat tail, BD Science) in 0.02 N acetic acid was added to each well of a 96-well black/clear-bottom plate (Costar) and air-dried. To make gelatin films, the same collagen solution was denatured at 70° C. for 15 minutes before applying to the well. The dried films were neutralized and washed with 1×PBS buffer (pH 7.4) and deionized water. PBS solution of carboxyfluorescein-labeled caged CMP (40 μL, 50 μM, unless indicated otherwise) pre-equilibrated at 4° C. was added onto each reconstituted collagen or gelatin film and exposed to 365 nm UV light (10 mW/cm^2, from mercury arc lamp) for 11 minutes on ice. Wells for the UV-negative control groups were covered with aluminum foil to block UV exposure. After incubation at 4° C. for over 3 hours (unless indicated otherwise), the unbound materials were removed by rinsing with PBS buffer and deionized water. The films were allowed to dry in dark, after which the fluorescence (ex: 489 nm, em: 533 nm) was measured with a SpectraMax Gemini XPS microplate reader (Molecular Devices). Each binding experiment was done in triplicate.

[3] = molecular target: T2, thermally-denatured collagen (gelatin) films (Rattus norvegicus, UniProt P02454+P02466); test: Photo-triggered CMP binding assay on gelatin films; conditions: after photo-cleavage, type I gelatin films
T2 construct: To make gelatin films, the same collagen solution was denatured at 70° C. for 15 minutes; purchased BD Science; host or cells: rat tail
T2 sequence (P02454 152-1207 limits assumed): as the sequence (P02454 152-1207 limits assumed) above
T2 sequence (P02466 86-1125 limits assumed): as the sequence (P02466 86-1125 limits assumed) above
Description: as §1

[4] = tested on: Panc02 and Panc198 tumors; test: In vivo tumor targeting, NIRF imaging, pancreatic xenografts; parameters: species or system mouse; conditions: approximately 4 nmol, tail vein; 96 hr post injection
Description: Murine Panc02 and human Panc198 cells were acquired from the ATCC (Rockville, Md.) and cultured in RPMI1640 supplemented with 10% FBS, 10 μg/mL of streptomycin and 10 I.U./mL of penicillin at 37° C. in 5% CO2 and humidified air until 80-95% confluence. The cells were then trypsinized and formulated at either 2×10^6 cells/100 μL (Panc198) or 1×10^6 cells/100 μL (Panc02) followed by subcutaneous inoculation into 12-week-old female athymic nu/nu mice (NCI). Panc198 and Panc02 cells were inoculated subcutaneously behind the left and right shoulder, respectively. When the Panc02 xenograft reached 4-6 mm in diameter (˜2 weeks after inoculation), each mouse was intravenously administered with solution containing 4 nmol of photo-activated IR-Ahx-(GPO)9 (SEQ ID NO: 9) or IR-Ahx-^SG9P9O9 (SEQ ID NO: 8) and 1 nmol of cysteine, followed by MMPsense injection and NIRF imaging as described.

[5] = tested on: PC-3 prostate tumor xenografts (PC3-PIP, PC3-flu); test: In vivo tumor targeting, NIRF imaging, prostate xenografts; parameters: species or system mouse; conditions: 3.7 nmol, tail vein, UV-activated, imaging over four days (to 96 hours PI)
[6] = tested on: collagen remodeling in bones and cartilages; conditions: 4 nmol intravenous, photo-decaged, four days after injection
[7] = molecular target: T3, mouse type IV collagen (denatured, reduced, in SDS-PAGE) (mouse, UniProt P02463 28-1669; P08122 26-1707); test: fluorescent staining of SDS-PAGE gel
T3 construct: also called collagen type IV

[8] = molecular target: T4, MMP-1 cleaved type I collagen (3/4 and 1/4 fragments) (rat, UniProt P02454 152-1207; P02466 86-1125); test: fluorescent staining of SDS-PAGE gel
T4 construct: Tested kept at 22 C, after 1 min at 37 C (spontaneously denatured), and as denatured bands in SDS-PAGE; also called MMP-1 digested collagens; MMP-Col
T4 sequence (P02454 152-1207, chain 1 of 2): as the sequence (P02454 152-1207 limits assumed) above
T4 sequence (P02466 86-1125, chain 2 of 2): as the sequence (P02466 86-1125 limits assumed) above

Tm (CD melting curve, triple helix) [1]: 51 °C
Molecule: CF-GGG-(GPP)4^NBGPP(GPP)4 [CF^NB(GPP)9]

UV triggered collagen binding as fraction of that of CF^NB(GPP)9 [2]: about one fourth
level of gelatin binding relative to CF^NB(GPP)9 [3]: an order of magnitude lower
Tm (CD melting curve, triple helix) [1]: 51 °C
Molecule: CF-GGG-(G^DP^DP)4^NBG^DP^DP(G^DP^DP)4 [CF^NB(G^DP^DP)9]

Molecule: IR-Ahx-^SG9P9O9: IRDye-800CW labeled sequence-scrambled control peptide with Ahx spacer, SEQ ID NO: 8 ({IRDye800CW-Ahx}-PGPGPGPPPPGPGPPPGPPPGGPPPPG; numbers in words are those of the source; also: 9 O residues (G9P9O9), places not given here)
tumor accumulation (NIRF imaging) [4]: no peptide accumulation
tumor accumulation (in vivo NIRF imaging) [5]: minimal accumulation at the tumor sites
tumor accumulation (in vivo NIRF imaging) ([5]; listed as IR-Ahx-SG9P9O9): cleared out
triple helical folding capacity (CD melting) ([1]; sequence-scrambled peptide): no triple helix forming capacity

Molecule: IR′-Ahx-^SG9P9O9: IRDye 680RD labeled sequence-scrambled peptide, SEQ ID NO: 8 ({IRDye 680RD-Ahx}-PGPGPGPPPPGPGPPPGPPPGGPPPPG; not fully specified; numbers in words are those of the source; also: 9 O residues (G9P9O9), places not given here)
skeletal uptake (whole body NIRF) [6]: signal only from the digestive system

binding result [7]: no binding (tested: 6 µM)
binding result [8]: no binding (tested: 6 µM)
B1: CF^SG9P9O9, sequence-scrambled control peptide, CF-GGG-PGOGPGPOPOGOGOPPGOOPGGOOPPG (peptide)
peptide: {CF}-GGGPG[Hyp]GPGP[Hyp]P[Hyp]G[Hyp]G[Hyp]PPG[Hyp][Hyp]PGG[Hyp][Hyp]PPG
notes: Cannot fold into a triple helix; also called ^9G9P9O9; ^CG9P9O9
